According to patent US7118895B2, “Process for producing aglycon by using diglycosidase and flavor-improved food containing the aglycon and converting agent to be used in the process” (Amano Enzyme Inc., priority 2000, dated 2006):

System: Crude diglycosidase
Assay: Examination of temperature in the conversion into isoflavone aglycons by diglycosidase using soybean materials
Type: biochemical, Penicillium multicolor IAM7153
Design: Decomposition efficiency of glycitin family in roasted soy flour / Decomposition efficiency of daidzin family in roasted soy flour / Decomposition efficiency of genistin family in soymilk / Decomposition efficiency of daidzin family in soymilk / Decomposition efficiency of glycitin family in defatted soybean / Decomposition efficiency of daidzin family in defatted soybean: concentration or dose not given beside the values
Description: Into 400 μL of 20 mM acetate buffer of pH 4.0 was suspended 50 mg of each of various soybean materials (roasted soy flour (manufactured by Fuji Shokuryo K.K.), soymilk (manufactured by Gitoh Shokuhin K.K.), defatted soybean (manufactured by Fuji Seiyu K.K.), concentrated soybean protein (manufactured by Fuji Seiyu K.K.)), whereby a substrate solution was prepared. Crude diglycosidase was diluted with 20 mM acetate buffer of pH 4.0 to be the glycosidase activity of 1.88 AU/mL. Fifty μL of the enzyme solution was mixed with the substrate solution and the whole was reacted at 80, 65, 55, 45, 37, or 30° C. at the total volume of 500 μL. To the reaction mixture was added 700 μL of ethanol after 0, 1, 3, and 6 hours of the reaction. After stirring and ultrasonication, the mixture was subjected to centrifugal separation at 15,000 rpm and 4° C. for 10 minutes. The supernatant was filtered through a filter and the existence of isoflavone glycosides and aglycon isoflavones contained in the reaction mixture was detected by HLPC.

[1] = 30° C., heat treatment of enzyme no, reaction time 0 h
[2] = 30° C., heat treatment of enzyme no, reaction time 1 h
[3] = 30° C., heat treatment of enzyme no, reaction time 3 h
[4] = 30° C., heat treatment of enzyme no, reaction time 6 h
[5] = 30° C., heat treatment of enzyme yes, reaction time 6 h
[6] = 30 °C, heat treatment of enzyme: no, 0 h
[7] = 30 °C, heat treatment of enzyme: no, 1 h
[8] = 30 °C, heat treatment of enzyme: no, 3 h
[9] = 30 °C, heat treatment of enzyme: no, 6 h
[10] = 30 °C, heat treatment of enzyme: yes, 6 h
[11] = 45° C., heat treatment of enzyme no, reaction time 0 h
[12] = 45° C., heat treatment of enzyme no, reaction time 1 h
[13] = 45° C., heat treatment of enzyme no, reaction time 3 h
[14] = 45° C., heat treatment of enzyme no, reaction time 6 h
[15] = 45° C., heat treatment of enzyme yes, reaction time 6 h
[16] = 45 °C, heat treatment of enzyme: no, 0 h
[17] = 45 °C, heat treatment of enzyme: no, 1 h
[18] = 45 °C, heat treatment of enzyme: no, 3 h
[19] = 45 °C, heat treatment of enzyme: no, 6 h
[20] = 45 °C, heat treatment of enzyme: yes, 6 h
[21] = 55° C., heat treatment of enzyme no, reaction time 0 h
[22] = 55° C., heat treatment of enzyme no, reaction time 1 h
[23] = 55° C., heat treatment of enzyme no, reaction time 3 h
[24] = 55° C., heat treatment of enzyme no, reaction time 6 h
[25] = 55° C., heat treatment of enzyme yes, reaction time 6 h
[26] = 55 °C, heat treatment of enzyme: no, 0 h
[27] = 55 °C, heat treatment of enzyme: no, 1 h
[28] = 55 °C, heat treatment of enzyme: no, 3 h
[29] = 55 °C, heat treatment of enzyme: no, 6 h
[30] = 55 °C, heat treatment of enzyme: yes, 6 h
[31] = 65° C., heat treatment of enzyme no, reaction time 0 h
[32] = 65° C., heat treatment of enzyme no, reaction time 1 h
[33] = 65° C., heat treatment of enzyme no, reaction time 3 h
[34] = 65° C., heat treatment of enzyme no, reaction time 6 h
[35] = 65° C., heat treatment of enzyme yes, reaction time 6 h
[36] = 65 °C, heat treatment of enzyme: no, 0 h
[37] = 65 °C, heat treatment of enzyme: no, 1 h
[38] = 65 °C, heat treatment of enzyme: no, 3 h
[39] = 65 °C, heat treatment of enzyme: no, 6 h
[40] = 65 °C, heat treatment of enzyme: yes, 6 h
[41] = 80° C., heat treatment of enzyme no, reaction time 0 h
[42] = 80° C., heat treatment of enzyme no, reaction time 1 h
[43] = 80° C., heat treatment of enzyme no, reaction time 3 h
[44] = 80° C., heat treatment of enzyme no, reaction time 6 h
[45] = 80° C., heat treatment of enzyme yes, reaction time 6 h
[46] = 80 °C, heat treatment of enzyme: no, 0 h
[47] = 80 °C, heat treatment of enzyme: no, 1 h
[48] = 80 °C, heat treatment of enzyme: no, 3 h
[49] = 80 °C, heat treatment of enzyme: no, 6 h
[50] = 80 °C, heat treatment of enzyme: yes, 6 h

CC(=O)OC[C@H]1O[C@@H](Oc2cc(O)c3c(=O)c(-c4ccc(O)cc4)coc3c2)[C@H](O)[C@@H](O)[C@@H]1O [acetylgenistin, 6″-O-acetylgenistin]
Decomposition efficiency of genistin family in concentrated soybean protein [1]: 43.1% | Decomposition efficiency of genistin family in defatted soybean [1]: 1.7% | Decomposition efficiency of genistin family in concentrated soybean protein [2]: 43.2% | Decomposition efficiency of genistin family in defatted soybean [2]: 1.3% | Decomposition efficiency of genistin family in concentrated soybean protein [3]: 43.0% | Decomposition efficiency of genistin family in defatted soybean [3]: 0.7% | Decomposition efficiency of genistin family in concentrated soybean protein [4]: 42.5% | Decomposition efficiency of genistin family in defatted soybean [4]: 0.1% | Decomposition efficiency of genistin family in concentrated soybean protein [5]: 41.5% | Decomposition efficiency of genistin family in defatted soybean [5]: 0.4% | Decomposition efficiency of genistin family in roasted soy flour [6]: 45.5% | Decomposition efficiency of genistin family in soymilk [6]: 0.9% | Decomposition efficiency of genistin family in roasted soy flour [7]: 45.3% | Decomposition efficiency of genistin family in soymilk [7]: not detected | Decomposition efficiency of genistin family in roasted soy flour [8]: 43.8% | Decomposition efficiency of genistin family in soymilk [8]: not detected | Decomposition efficiency of genistin family in roasted soy flour [9]: 40.6% | Decomposition efficiency of genistin family in soymilk [9]: not detected | Decomposition efficiency of genistin family in roasted soy flour [10]: 43.8% | Decomposition efficiency of genistin family in soymilk [10]: 0.9% | Decomposition efficiency of genistin family in concentrated soybean protein [11]: 43.0% | Decomposition efficiency of genistin family in defatted soybean [11]: 1.5% | Decomposition efficiency of genistin family in concentrated soybean protein [12]: 42.8% | Decomposition efficiency of genistin family in defatted soybean [12]: 0.8% | Decomposition efficiency of genistin family in concentrated soybean protein [13]: 41.0% | Decomposition efficiency of genistin family in defatted soybean [13]: 0.3% | Decomposition efficiency of genistin family in concentrated soybean protein [14]: 39.6% | Decomposition efficiency of genistin family in defatted soybean [14]: 0.2% | Decomposition efficiency of genistin family in concentrated soybean protein [15]: 38.9% | Decomposition efficiency of genistin family in defatted soybean [15]: 0.2% | Decomposition efficiency of genistin family in roasted soy flour [16]: 45.3% | Decomposition efficiency of genistin family in soymilk [16]: 0.9% | Decomposition efficiency of genistin family in roasted soy flour [17]: 43.6% | Decomposition efficiency of genistin family in soymilk [17]: not detected | Decomposition efficiency of genistin family in roasted soy flour [18]: 38.5% | Decomposition efficiency of genistin family in soymilk [18]: not detected | Decomposition efficiency of genistin family in roasted soy flour [19]: 31.7% | Decomposition efficiency of genistin family in soymilk [19]: not detected | Decomposition efficiency of genistin family in roasted soy flour [20]: 39.5% | Decomposition efficiency of genistin family in soymilk [20]: 0.6% | Decomposition efficiency of genistin family in concentrated soybean protein [21]: 42.9% | Decomposition efficiency of genistin family in defatted soybean [21]: 1.7% | Decomposition efficiency of genistin family in concentrated soybean protein [22]: 43.1% | Decomposition efficiency of genistin family in defatted soybean [22]: 0.7% | Decomposition efficiency of genistin family in concentrated soybean protein [23]: 41.1% | Decomposition efficiency of genistin family in defatted soybean [23]: 0.2% | Decomposition efficiency of genistin family in concentrated soybean protein [24]: 39.0% | Decomposition efficiency of genistin family in defatted soybean [24]: 0.1% | Decomposition efficiency of genistin family in concentrated soybean protein [25]: 41.1% | Decomposition efficiency of genistin family in defatted soybean [25]: 0.4% | Decomposition efficiency of genistin family in roasted soy flour [26]: 45.7% | Decomposition efficiency of genistin family in soymilk [26]: 0.6% | Decomposition efficiency of genistin family in roasted soy flour [27]: 42.5% | Decomposition efficiency of genistin family in soymilk [27]: not detected | Decomposition efficiency of genistin family in roasted soy flour [28]: 34.0% | Decomposition efficiency of genistin family in soymilk [28]: not detected | Decomposition efficiency of genistin family in roasted soy flour [29]: 27.3% | Decomposition efficiency of genistin family in soymilk [29]: not detected | Decomposition efficiency of genistin family in roasted soy flour [30]: 39.9% | Decomposition efficiency of genistin family in soymilk [30]: 0.7% | Decomposition efficiency of genistin family in concentrated soybean protein [31]: 43.1% | Decomposition efficiency of genistin family in defatted soybean [31]: 1.5% | Decomposition efficiency of genistin family in concentrated soybean protein [32]: 45.2% | Decomposition efficiency of genistin family in defatted soybean [32]: 1.2% | Decomposition efficiency of genistin family in concentrated soybean protein [33]: 44.0% | Decomposition efficiency of genistin family in defatted soybean [33]: 1.2% | Decomposition efficiency of genistin family in concentrated soybean protein [34]: 43.4% | Decomposition efficiency of genistin family in defatted soybean [34]: 1.1% | Decomposition efficiency of genistin family in concentrated soybean protein [35]: 42.3% | Decomposition efficiency of genistin family in defatted soybean [35]: 1.3% | Decomposition efficiency of genistin family in roasted soy flour [36]: 45.5% | Decomposition efficiency of genistin family in soymilk [36]: 0.9% | Decomposition efficiency of genistin family in roasted soy flour [37]: 43.6% | Decomposition efficiency of genistin family in soymilk [37]: not detected | Decomposition efficiency of genistin family in roasted soy flour [38]: 40.5% | Decomposition efficiency of genistin family in soymilk [38]: not detected | Decomposition efficiency of genistin family in roasted soy flour [39]: 38.8% | Decomposition efficiency of genistin family in soymilk [39]: not detected | Decomposition efficiency of genistin family in roasted soy flour [40]: 44.3% | Decomposition efficiency of genistin family in soymilk [40]: 1.1% | Decomposition efficiency of genistin family in concentrated soybean protein [41]: 43.0% | Decomposition efficiency of genistin family in defatted soybean [41]: 1.5% | Decomposition efficiency of genistin family in concentrated soybean protein [42]: 44.0% | Decomposition efficiency of genistin family in defatted soybean [42]: 1.8% | Decomposition efficiency of genistin family in concentrated soybean protein [43]: 43.6% | Decomposition efficiency of genistin family in defatted soybean [43]: 2.1% | Decomposition efficiency of genistin family in concentrated soybean protein [44]: 43.4% | Decomposition efficiency of genistin family in defatted soybean [44]: 2.5% | Decomposition efficiency of genistin family in concentrated soybean protein [45]: 41.4% | Decomposition efficiency of genistin family in defatted soybean [45]: 2.4% | Decomposition efficiency of genistin family in roasted soy flour [46]: 45.3% | Decomposition efficiency of genistin family in soymilk [46]: 0.9% | Decomposition efficiency of genistin family in roasted soy flour [47]: 48.5% | Decomposition efficiency of genistin family in soymilk [47]: 0.9% | Decomposition efficiency of genistin family in roasted soy flour [48]: 48.2% | Decomposition efficiency of genistin family in soymilk [48]: 1.0% | Decomposition efficiency of genistin family in roasted soy flour [49]: 47.7% | Decomposition efficiency of genistin family in soymilk [49]: 2.3% | Decomposition efficiency of genistin family in roasted soy flour [50]: 43.4% | Decomposition efficiency of genistin family in soymilk [50]: 2.5%
